pIC50: −log10 of the molar value.
What follows are molecules tested against T1, BTK (Homo sapiens, UniProt Q06187) (assay: BTK kinase electrophoretic mobility shift assay (MSA)). Settings: 50 μM ATP, 0.5 nM BTK enzyme (Nanosyn-293HEK, WT), 3 hours at 25° C.; all examples except 50, 51, 62 and 63; read-out: BTK IC50.
T1 construct: purchased Nanosyn, Santa Clara, Calif; host or cells: 293HEK
Type: biochemical
Method: Kinase activity, unless otherwise indicated, was measured in vitro using an electrophoretic mobility shift assay (MSA). The phosphorylation of a peptide substrate by BTK and other kinases was measured. The kinase reactions were assembled in a total volume of 25 μL per well in 384 well plates. The following was added to each well: compound buffer (or control); enzyme buffer; and substrate buffer, as further described below.
The terminated reactions were analyzed using a 12 channel LABCHIP® 3000 microfluidic detection instrument (available from Caliper Life Sciences, Waltham, Mass.). […] Change in the relative fluorescence intensity of the substrate and product peaks was the parameter measured, reflecting enzyme activity. In the presence of an inhibitor, the ratio between product and substrate was altered. The signal of the product decreased, while the signal of the substrate increased. Capillary electrophoregrams (RDA acquisition files) were analyzed using HTS Well Analyzer software (available from Caliper Life Sciences, Waltham, Mass.).
Activity in each sample was determined as the product to sum ratio (PSR): P/(S+P), where P was the peak height of the product peptide and S was the peak height of the substrate peptide. For each compound, enzyme activity was measured at various concentrations (12 concentrations of compound spaced by 3× dilution intervals). Negative control samples (00 inhibition in the absence of inhibitor) and positive control samples (10000 inhibition, in the presence of 20 mM EDTA) were assembled in replicates of four and were used to calculate 00 inhibition values for each inhibitor at each concentration. Percent inhibition (Pinh) was determined using following equation: Pinh=(PSR0%−PSRinh)/(PSR0%−PSR100%)*100, where PSRinh was the product sum ratio in the presence of inhibitor, PSR0% was the average product sum ratio in the absence of inhibitor and PSR100% was the average product sum ratio in 100%−inhibition control samples.
The IC50 values of inhibitors were determined by 4 parameter sigmoidal dose response model fitting of the inhibition curves (Pinh versus inhibitor concentration) using XLfit® 4 software (available from IDBS, Boston, Mass.).

T1 sequence (Q06187 whole entry): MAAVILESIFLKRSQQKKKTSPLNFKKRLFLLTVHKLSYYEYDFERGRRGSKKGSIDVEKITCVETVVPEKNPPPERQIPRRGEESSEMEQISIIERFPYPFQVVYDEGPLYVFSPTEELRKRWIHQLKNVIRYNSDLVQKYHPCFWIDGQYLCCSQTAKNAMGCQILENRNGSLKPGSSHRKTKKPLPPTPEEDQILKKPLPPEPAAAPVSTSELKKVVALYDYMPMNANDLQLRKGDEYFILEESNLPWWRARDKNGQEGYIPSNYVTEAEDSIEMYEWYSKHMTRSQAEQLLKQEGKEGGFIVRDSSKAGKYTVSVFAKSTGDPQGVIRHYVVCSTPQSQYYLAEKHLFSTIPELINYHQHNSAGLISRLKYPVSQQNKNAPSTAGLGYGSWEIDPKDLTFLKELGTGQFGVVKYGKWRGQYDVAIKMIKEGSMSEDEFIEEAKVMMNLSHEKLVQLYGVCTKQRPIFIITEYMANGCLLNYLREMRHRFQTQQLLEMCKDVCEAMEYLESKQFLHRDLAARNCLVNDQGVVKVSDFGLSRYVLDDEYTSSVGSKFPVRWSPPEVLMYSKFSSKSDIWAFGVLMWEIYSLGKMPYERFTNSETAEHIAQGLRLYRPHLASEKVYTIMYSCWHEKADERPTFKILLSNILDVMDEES

pIC50	SMILES
8.42	C=CC(=O)N1CCC(C2CCNc3c2nn(-c2ccc(Oc4ccccc4)cc2)c3C(N)=O)C1 (mixture of isomers) [Example 10, 2-(4-phenoxyphenyl)-7-[1-(prop-2-enoyl)pyrrolidin-3-yl]-4,5,6,7-tetrahydro-2H-pyrazolo[4,3-b]pyridine-3-carboxamide]
8.33	C=CC(=O)N1CCC[C@H]([C@@H]2CCNc3c2nn(-c2ccc(Oc4ccccc4)cc2)c3C(N)=O)C1 (racemic) [Example 8, (7SR)-2-(4-phenoxyphenyl)-7-[(3RS)-1-(prop-2-enoyl)piperidin-3-yl]-4,5,6,7-tetrahydro-2H-pyrazolo[4,3-b]pyridine-3-carboxamide]
7.86	C=CC(=O)N1CCC[C@@H]([C@@H]2CCNc3c2nn(-c2ccc(Oc4ccccc4)cc2)c3C(N)=O)C1 (racemic) [Example 9, (7RS)-2-(4-phenoxyphenyl)-7-[(3RS)-1-(prop-2-enoyl)piperidin-3-yl]-4,5,6,7-tetrahydro-2H-pyrazolo[4,3-b]pyridine-3-carboxamide]
7.05	C=CC(=O)N1CCN([C@H]2CCNc3c2nn(-c2ccc(Oc4ccccc4)cc2)c3C(N)=O)[C@@H](C)C1 (single isomer, unassigned) [Example 31]
7.74	C=CC(=O)N1CCN([C@@H]2CCNc3c2nn(-c2ccc(Oc4ccccc4)cc2)c3C(N)=O)[C@@H](C)C1 (single isomer, unassigned) [Example 32]
8.24	CC#CC(=O)N1CCN([C@H]2CCNc3c2nn(-c2ccc(Oc4ccccc4)cc2)c3C(N)=O)CC1 (single isomer, unassigned) [Example 39]
7.31	CC#CC(=O)N1CCN([C@@H]2CCNc3c2nn(-c2ccc(Oc4ccccc4)cc2)c3C(N)=O)CC1 (single isomer, unassigned) [Example 40]
8.39	CC#CC(=O)N1CCC(C2CCNc3c2nn(-c2ccc(Oc4ccccc4)cc2)c3C(N)=O)CC1 (stereo not drawn) [Example 2, 7-[1-(but-2-ynoyl)piperidin-4-yl]-2-(4-phenoxyphenyl)-4,5,6,7-tetrahydro-2H-pyrazolo[4,3-b]pyridine-3-carboxamide]
7.98	C=CC(=O)N1CCC([C@@H]2CCNc3c2nn(-c2ccc(Oc4ccccc4)cc2)c3C(N)=O)CC1 [Example 5, (7S)-2-(4-phenoxyphenyl)-7-[1-(prop-2-enoyl)piperidin-4-yl]-4,5,6,7-tetrahydro-2H-pyrazolo[4,3-b]pyridine-3-carboxamide]
7.94	C=CC(=O)N1CCN([C@H]2CCNc3c2nn(-c2ccc(Oc4ccccc4)cc2)c3C(N)=O)CC1 [Example 7, (7S)-2-(4-phenoxyphenyl)-7-[4-(prop-2-enoyl)piperazin-1-yl]-4,5,6,7-tetrahydro-2H-pyrazolo[4,3-b]pyridine-3-carboxamide]
8.65	C=CC(=O)N1CCC(C2CCNc3c2nn(-c2ccc(Oc4ccc(F)cc4)cc2)c3C(N)=O)CC1 (stereo not drawn) [Example 11, 2-[4-(4-fluorophenoxy)phenyl]-7-[1-(prop-2-enoyl)piperidin-4-yl]-4,5,6,7-tetrahydro-2H-pyrazolo[4,3-b]pyridine-3-carboxamide]
8.74	C=CC(=O)N1CCC(C2CCNc3c2nn(-c2ccc(Oc4ccc(F)cc4F)cc2)c3C(N)=O)CC1 (stereo not drawn) [Example 13, 2-[4-(2,4-difluorophenoxy)phenyl]-7-[1-(prop-2-enoyl)piperidin-4-yl]-4,5,6,7-tetrahydro-2H-pyrazolo[4,3-b]pyridine-3-carboxamide]
7.43	C=CC(=O)N1CCC(C2CCNc3c2nn(-c2ccc(Oc4ccccc4)cc2OC)c3C(N)=O)CC1 (stereo not drawn) [Example 14, 2-(2-methoxy-4-phenoxyphenyl)-7-[1-(prop-2-enoyl)piperidin-4-yl]-4,5,6,7-tetrahydro-2H-pyrazolo[4,3-b]pyridine-3-carboxamide]
8.57	C=CC(=O)N1CCC(C2CCNc3c2nn(-c2ccc(Oc4ccc(OC)cc4)cc2)c3C(N)=O)CC1 (stereo not drawn) [Example 17, 2-[4-(4-methoxyphenoxy)phenyl]-7-[1-(prop-2-enoyl)piperidin-4-yl]-4,5,6,7-tetrahydro-2H-pyrazolo[4,3-b]pyridine-3-carboxamide]
6.17	C=CC(=O)N1C[C@H](C)N(C2CCNc3c2nn(-c2ccc(Oc4ccccc4)cc2)c3C(N)=O)C[C@H]1C (stereo partly drawn) [Example 18, 7-[(2S,5R)-2,5-dimethyl-4-(prop-2-enoyl)piperazin-1-yl]-2-(4-phenoxyphenyl)-4,5,6,7-tetrahydro-2H-pyrazolo[4,3-b]pyridine-3-carboxamide]
8.06	CC#CC(=O)N1CCC(N2CCNc3c2nn(-c2ccc(Oc4ccccc4)cc2)c3C(N)=O)CC1 [Example 19, 7-[1-(but-2-ynoyl)piperidin-4-yl]-2-(4-phenoxyphenyl)-4,5,6,7-tetrahydro-2H-pyrazolo[3,4-b]pyrazine-3-carboxamide]
8.50	C=CC(=O)N1CCN(C2CCNc3c2nn(-c2ccc(Oc4ccccc4)cc2)c3C(N)=O)C[C@H]1C(C)C (stereo partly drawn) [Example 20, 2-(4-phenoxyphenyl)-7-[(3R)-3-(propan-2-yl)-4-(prop-2-enoyl)piperazin-1-yl]-4,5,6,7-tetrahydro-2H-pyrazolo[4,3-b]pyridine-3-carboxamide]
6.04	C=CC(=O)N1C[C@@H](C)N(C2CCNc3c2nn(-c2ccc(Oc4ccccc4)cc2)c3C(N)=O)C[C@@H]1C (stereo partly drawn) [Example 21, 7-[(2R,5S)-2,5-dimethyl-4-(prop-2-enoyl)piperazin-1-yl]-2-(4-phenoxyphenyl)-4,5,6,7-tetrahydro-2H-pyrazolo[4,3-b]pyridine-3-carboxamide]
8.69	C=CC(=O)N1CCC(C2CCNc3c2nn(-c2ccc(Oc4cccc(C(F)(F)F)c4)cc2)c3C(N)=O)CC1 (stereo not drawn) [Example 23, 7-[1-(prop-2-enoyl)piperidin-4-yl]-2-{4-[3-(trifluoromethyl)phenoxy]phenyl}-4,5,6,7-tetrahydro-2H-pyrazolo[4,3-b]pyridine-3-carboxamide]
7.53	C=CC(=O)N1CCCN(C2CCNc3c2nn(-c2ccc(Oc4ccccc4)cc2)c3C(N)=O)CC1 (stereo not drawn) [Example 25, trifluoroacetic acid-2-(4-phenoxyphenyl)-7-[4-(prop-2-enoyl)-1,4-diazepan-1-yl]-4,5,6,7-tetrahydro-2H-pyrazolo[4,3-b]pyridine-3-carboxamide (1/1)]
8.67	C=CC(=O)N1CCN(C2CCNc3c2nn(-c2ccc(Oc4ccccc4)cc2)c3C(N)=O)CC12CCC2 (stereo not drawn) [Example 26, 2-(4-phenoxyphenyl)-7-[5-(prop-2-enoyl)-5,8-diazaspiro[3.5]nonan-8-yl]-4,5,6,7-tetrahydro-2H-pyrazolo[4,3-b]pyridine-3-carboxamide]
6.90	CC#CC(=O)N1CCN(C2CCNc3c2nn(-c2ccc(Oc4ccccc4)cc2)c3C(N)=O)CC1 (stereo not drawn) [Example 27, 7-[4-(but-2-ynoyl)piperazin-1-yl]-2-(4-phenoxyphenyl)-4,5,6,7-tetrahydro-2H-pyrazolo[4,3-b]pyridine-3-carboxamide]
8.33	C=CC(=O)N1CCC(C2CCNc3c2nn(-c2ccc(Oc4ccc(Cl)cc4)cc2)c3C(N)=O)CC1 (stereo not drawn) [Example 28, 2-[4-(4-chlorophenoxy)phenyl]-7-[1-(prop-2-enoyl)piperidin-4-yl]-4,5,6,7-tetrahydro-2H-pyrazolo[4,3-b]pyridine-3-carboxamide]
7.62	C=CC(=O)N1CCC([C@@H]2CCNc3c2nn(-c2ccc(Oc4ccc(F)cc4F)cc2)c3C(N)=O)CC1 [Example 29, (7S)-2-[4-(2,4-difluorophenoxy)phenyl]-7-[1-(prop-2-enoyl)piperidin-4-yl]-4,5,6,7-tetrahydro-2H-pyrazolo[4,3-b]pyridine-3-carboxamide]
7.61	C=CC(=O)N1C[C@H]2C[C@@H]1CN2C1CCNc2c1nn(-c1ccc(Oc3ccccc3)cc1)c2C(N)=O (stereo partly drawn) [Example 33, 2-(4-phenoxyphenyl)-7-[(1R,4R)-5-(prop-2-enoyl)-2,5-diazabicyclo[2.2.1]heptan-2-yl]-4,5,6,7-tetrahydro-2H-pyrazolo[4,3-b]pyridine-3-carboxamide]
7.90	C=CC(=O)N1C[C@@H]2C[C@H]1CN2C1CCNc2c1nn(-c1ccc(Oc3ccccc3)cc1)c2C(N)=O (stereo partly drawn) [Example 34, 2-(4-phenoxyphenyl)-7-[(1S,4S)-5-(prop-2-enoyl)-2,5-diazabicyclo[2.2.1]heptan-2-yl]-4,5,6,7-tetrahydro-2H-pyrazolo[4,3-b]pyridine-3-carboxamide]
7.85	C=CC(=O)N1CCN(C2CCNc3c2nn(-c2ccc(Oc4ccc(F)cc4F)cc2)c3C(N)=O)CC1 (stereo not drawn) [Example 36, 2-[4-(2,4-difluorophenoxy)phenyl]-7-[4-(prop-2-enoyl)piperazin-1-yl]-4,5,6,7-tetrahydro-2H-pyrazolo[4,3-b]pyridine-3-carboxamide]
